Measured values published in patent US9540366B2, “Ring-fused heterocyclic compound” (Kyowa Hakko Kirin Co., Ltd., priority 2012, dated 2017).
Where two headings read alike, the source gives them in different places.

Molecular target: T1, human Cav3.2 T-type Ca2+ channel (Homo sapiens, UniProt O95180)
T1 construct: expressed in transfected cells; host or cells: KJMGER8 cells (Namalwa cell-derived cell line)
Assay: Inhibitory effect for intracellular calcium response via Cav3.2 T-type Ca2+ channels (FLIPR Calcium 3 Assay Kit)
Assay type: cell-based

[1] = human Cav3.2-expressing KJMGER8 cells (Namalwa-derived), calcium response induced by 5 mmol/L CaCl2, 3 μmol/L mibefradil as reference, read-out: IC50 for the human Cav3.2 T-type Ca2+ current

T1 sequence (O95180 whole entry): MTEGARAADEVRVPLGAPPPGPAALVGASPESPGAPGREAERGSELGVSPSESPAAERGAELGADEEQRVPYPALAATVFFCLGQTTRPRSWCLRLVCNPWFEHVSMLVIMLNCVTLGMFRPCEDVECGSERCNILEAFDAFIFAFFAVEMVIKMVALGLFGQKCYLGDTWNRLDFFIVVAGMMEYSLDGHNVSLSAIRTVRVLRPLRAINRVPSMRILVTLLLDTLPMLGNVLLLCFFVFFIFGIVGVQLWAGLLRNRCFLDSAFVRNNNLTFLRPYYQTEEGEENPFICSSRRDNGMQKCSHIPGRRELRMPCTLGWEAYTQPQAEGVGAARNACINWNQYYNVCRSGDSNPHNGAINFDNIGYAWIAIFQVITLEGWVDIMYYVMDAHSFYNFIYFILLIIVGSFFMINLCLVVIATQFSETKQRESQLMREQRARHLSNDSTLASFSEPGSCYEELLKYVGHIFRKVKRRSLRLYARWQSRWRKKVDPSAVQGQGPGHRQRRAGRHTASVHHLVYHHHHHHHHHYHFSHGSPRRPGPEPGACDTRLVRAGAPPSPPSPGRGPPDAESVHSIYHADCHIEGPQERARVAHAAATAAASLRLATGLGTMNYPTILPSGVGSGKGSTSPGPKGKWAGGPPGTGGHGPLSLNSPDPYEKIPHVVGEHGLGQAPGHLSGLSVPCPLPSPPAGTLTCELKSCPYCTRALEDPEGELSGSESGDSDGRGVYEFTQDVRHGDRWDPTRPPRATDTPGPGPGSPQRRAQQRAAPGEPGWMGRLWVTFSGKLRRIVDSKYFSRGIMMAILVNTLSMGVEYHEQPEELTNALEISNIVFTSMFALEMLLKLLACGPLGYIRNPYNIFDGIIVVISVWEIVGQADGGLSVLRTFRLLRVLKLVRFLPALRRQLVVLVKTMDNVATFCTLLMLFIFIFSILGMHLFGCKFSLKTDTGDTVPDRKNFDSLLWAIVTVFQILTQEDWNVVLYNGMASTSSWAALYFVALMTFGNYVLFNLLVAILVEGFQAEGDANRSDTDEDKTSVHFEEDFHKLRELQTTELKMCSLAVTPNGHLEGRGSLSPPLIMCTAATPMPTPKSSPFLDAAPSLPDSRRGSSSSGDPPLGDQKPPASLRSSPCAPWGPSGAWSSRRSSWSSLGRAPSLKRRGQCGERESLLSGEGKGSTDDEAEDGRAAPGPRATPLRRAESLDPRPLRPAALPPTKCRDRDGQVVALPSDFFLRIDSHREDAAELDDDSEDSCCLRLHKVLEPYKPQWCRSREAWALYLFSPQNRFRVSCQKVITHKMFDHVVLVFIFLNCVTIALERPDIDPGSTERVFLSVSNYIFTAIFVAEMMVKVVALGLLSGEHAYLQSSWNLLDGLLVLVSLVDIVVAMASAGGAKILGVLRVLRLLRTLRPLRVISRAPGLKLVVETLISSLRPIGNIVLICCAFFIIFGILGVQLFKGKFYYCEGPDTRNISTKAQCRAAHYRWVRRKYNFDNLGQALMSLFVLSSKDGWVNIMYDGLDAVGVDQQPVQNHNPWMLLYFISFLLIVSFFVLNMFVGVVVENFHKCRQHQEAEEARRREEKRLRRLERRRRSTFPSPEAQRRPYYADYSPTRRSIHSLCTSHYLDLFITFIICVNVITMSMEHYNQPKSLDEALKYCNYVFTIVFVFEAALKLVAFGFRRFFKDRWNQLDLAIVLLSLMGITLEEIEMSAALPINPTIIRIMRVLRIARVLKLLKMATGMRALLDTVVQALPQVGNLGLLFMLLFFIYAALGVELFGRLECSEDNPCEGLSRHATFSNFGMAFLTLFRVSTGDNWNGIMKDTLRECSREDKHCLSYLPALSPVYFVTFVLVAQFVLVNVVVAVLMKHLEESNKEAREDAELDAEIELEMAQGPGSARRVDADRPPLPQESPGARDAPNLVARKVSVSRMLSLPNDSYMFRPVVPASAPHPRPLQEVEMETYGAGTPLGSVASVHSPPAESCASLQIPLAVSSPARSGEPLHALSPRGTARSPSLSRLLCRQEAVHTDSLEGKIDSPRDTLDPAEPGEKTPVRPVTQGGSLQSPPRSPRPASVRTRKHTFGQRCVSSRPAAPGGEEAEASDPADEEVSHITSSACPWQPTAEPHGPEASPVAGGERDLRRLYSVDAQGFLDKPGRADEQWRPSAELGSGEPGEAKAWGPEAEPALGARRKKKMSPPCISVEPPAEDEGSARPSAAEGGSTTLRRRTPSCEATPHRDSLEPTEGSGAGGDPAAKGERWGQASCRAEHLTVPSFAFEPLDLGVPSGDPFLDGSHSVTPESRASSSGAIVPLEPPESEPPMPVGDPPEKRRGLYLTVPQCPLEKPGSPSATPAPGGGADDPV

SMILES	IC50 [nM]	IC50 [1] [nM]
CCOC(C)(C)c1nc2cc(C(=O)NC3CCOCC3)cc(C)n2c1CC1CCC(F)(F)CC1 [Compound 1, 3-[(4,4-Difluorocyclohexyl)methyl]-2-(2-ethoxypropan-2-yl)-5-methyl-N-(tetrahydro-2H-pyran-4-yl)imidazo[1,2-a]pyridine-7-carboxamide]	≤ 100	
CC1(CNC(=O)c2cc(C#N)n3c(CC4CCC(F)(F)CC4)c(C(F)(F)F)nc3c2)CCCO1 (stereo not shown) [Compound 2, 5-Cyano-3-[(4,4-difluorocyclohexyl)methyl]-N-[(2-methyltetrahydrofuran-2-yl)methyl]-2-(trifluoromethyl)imidazo[1,2-a]pyridine-7-carboxamide]	≤ 100	
N#Cc1cc(C(=O)NCC2CCOC2)cc2nc(C(F)(F)F)c(CC3CCC(F)(F)CC3)n12 (stereo not shown) [Compound 3, 5-Cyano-3-[(4,4-difluorocyclohexyl)methyl]-N-[(tetrahydrofuran-3-yl)methyl]-2-(trifluoromethyl)imidazo[1,2-a]pyridine-7-carboxamide]	≤ 100	
Cc1cc(C(=O)NC2CCOCC2)cc2nc(C(C)(C)C)c(CC3CCC(F)(F)CC3)n12 [Compound 4, 2-tert-Butyl-3-[(4,4-difluorocyclohexyl)methyl]-5-methyl-N-(tetrahydro-2H-pyran-4-yl)imidazo[1,2-a]pyridine-7-carboxamide]	≤ 100	
CC(F)(F)c1nc2cc(C(=O)Nc3ccccc3)c(Cl)cn2c1CC1CCC(F)(F)CC1 [Compound 5, 6-Chloro-3-[(4,4-difluorocyclohexyl)methyl]-2-(1,1-difluoroethyl)-N-phenylimidazo[1,2-a]pyridine-7-carboxamide]	≤ 100	
O=C(Nc1ccccc1)c1cc2nc(C3CC3)c(CC3CCC(F)(F)CC3)n2cc1Cl [Compound 6, 6-Chloro-2-cyclopropyl-3-[(4,4-difluorocyclohexyl)methyl]-N-phenylimidazo[1,2-a]pyridine-7-carboxamide]	≤ 100	
O=C(Nc1ccccc1)c1cc2nc(C3CC(F)(F)C3)c(CC3CCC(F)(F)CC3)n2cc1Cl [Compound 7, 6-Chloro-2-(3,3-difluorocyclobutyl)-3-[(4,4-difluorocyclohexyl)methyl]-N-phenylimidazo[1,2-a]pyridine-7-carboxamide]	≤ 100	
Cc1cc(C(=O)Nc2ccccc2)cc2nc(C(C)(C)O)c(CC3CCC(F)(F)CC3)n12 [Compound 8, 3-[(4,4-Difluorocyclohexyl)methyl]-2-(2-hydroxypropan-2-yl)-5-methyl-N-phenylimidazo[1,2-a]pyridine-7-carboxamide]	≤ 100	
Cc1cc(C(=O)NC2CCC(F)(F)CC2)cc2nc(C(C)(C)O)c(CC3CCC(F)(F)CC3)n12 [Compound 9, N-(4,4-Difluorocyclohexyl)-3-[(4,4-difluorocyclohexyl)methyl]-2-(2-hydroxypropan-2-yl)-5-methylimidazo[1,2-a]pyridine-7-carboxamide]		≤ 100
Cc1cc(C(=O)NC2CC(F)(F)C2)cc2nc(C(C)(C)O)c(CC3CCC(F)(F)CC3)n12 [Compound 10, N-(3,3-Difluorocyclobutyl)-3-[(4,4-difluorocyclohexyl)methyl]-2-(2-hydroxypropan-2-yl)-5-methylimidazo[1,2-a]pyridine-7-carboxamide]	≤ 100	
[2H]C([2H])([2H])OC(C)(C)c1nc2cc(C(=O)NC3CCOCC3)cc(C)n2c1CC1CCC(F)(F)CC1 [Compound 11, 3-[(4,4-Difluorocyclohexyl)methyl]-2-(2-methoxy-d3-propan-2-yl)-5-methyl-N-(tetrahydro-2H-pyran-4-yl)imidazo[1,2-a]pyridine-7-carboxamide]	≤ 100	
O=C(NC1CCC(F)(F)CC1)c1cc2nc(C3CC3)c(CC3CCC(F)(F)CC3)n2cc1Cl [Compound 14, 6-Chloro-2-cyclopropyl-N-(4,4-difluorocyclohexyl)-3-[(4,4-difluorocyclohexyl)methyl]imidazo[1,2-a]pyridine-7-carboxamide]	≤ 100	
CC(=O)c1nc2cc(C(=O)Nc3ccccc3)cc(C)n2c1CC1CCC(F)(F)CC1 [Compound 19, 2-Acetyl-3-[(4,4-difluorocyclohexyl)methyl]-5-methyl-N-phenylimidazo[1,2-a]pyridine-7-carboxamide]	≤ 100	
Cc1cc(C(=O)Nc2ccccc2)cc2nc(C(C)O)c(CC3CCC(F)(F)CC3)n12 (stereo not shown) [Compound 20, 3-[(4,4-Difluorocyclohexyl)methyl]-2-(1-hydroxyethyl)-5-methyl-N-phenylimidazo[1,2-a]pyridine-7-carboxamide]		≤ 100
CC(F)(F)c1nc2cc(C(=O)NCC3CC3)c(Cl)cn2c1CC1CCC(F)(F)CC1 [Compound 21, 6-Chloro-N-(cyclopropylmethyl)-3-[(4,4-difluorocyclohexyl)methyl]-2-(1,1-difluoroethyl)imidazo[1,2-a]pyridine-7-carboxamide]	≤ 100	
CC(F)(F)c1nc2cc(C(=O)NC3CCC3)c(Cl)cn2c1CC1CCC(F)(F)CC1 [Compound 22, 6-Chloro-N-cyclobutyl-3-[(4,4-difluorocyclohexyl)methyl]-2-(1,1-difluoroethyl)imidazo[1,2-a]pyridine-7-carboxamide]	≤ 100	

SMILES	IC50 [nM]	IC50 [1] [nM]
CC1(C)CC(NC(=O)c2cc3nc(C(C)(F)F)c(CC4CCC(F)(F)CC4)n3cc2Cl)CCO1 (stereo not shown) [Compound 23, 6-Chloro-3-[(4,4-difluorocyclohexyl)methyl]-2-(1,1-difluoroethyl)-N-(2,2-dimethyltetrahydro-2H-pyran-4-yl)imidazo[1,2-a]pyridine-7-carboxamide]	≤ 100	
CC(F)(F)c1nc2cc(C(=O)NCC3CCOC3)c(Cl)cn2c1CC1CCC(F)(F)CC1 (stereo not shown) [Compound 24, 6-Chloro-3-[(4,4-difluorocyclohexyl)methyl]-2-(1,1-difluoroethyl)-N-[(tetrahydrofuran-3-yl)methyl]imidazo[1,2-a]pyridine-7-carboxamide]	≤ 100	
CC(F)(F)c1nc2cc(C(=O)NC3CCC(O)CC3)c(Cl)cn2c1CC1CCC(F)(F)CC1 (stereo not shown) [Compound 25, 6-Chloro-3-[(4,4-difluorocyclohexyl)methyl]-2-(1,1-difluoroethyl)-N-(4-hydroxycyclohexyl)imidazo[1,2-a]pyridine-7-carboxamide]	≤ 100	
CC(C)(O)CNC(=O)c1cc2nc(C(C)(F)F)c(CC3CCC(F)(F)CC3)n2cc1Cl [Compound 26, 6-Chloro-3-[(4,4-difluorocyclohexyl)methyl]-2-(1,1-difluoroethyl)-N-(2-hydroxy-2-methylpropyl)imidazo[1,2-a]pyridine-7-carboxamide]	≤ 100	
CCC(F)(F)c1nc2cc(C(=O)NC3CCOCC3)cc(C)n2c1CC1CCC(F)(F)CC1 [Compound 27, 3-[(4,4-Difluorocyclohexyl)methyl]-2-(1,1-difluoropropyl)-5-methyl-N-(tetrahydro-2H-pyran-4-yl)imidazo[1,2-a]pyridine-7-carboxamide]	≤ 100	
Cc1cc(NC(=O)c2cc3nc(C(C)(C)Cl)c(S(=O)(=O)N4CC(F)(F)C4)n3cc2Cl)on1 [Compound 28, 6-Chloro-2-(2-chloropropan-2-yl)-3-(3,3-difluoroazetidin-1-ylsulfonyl)-N-(3-methylisoxazol-5-yl)imidazo[1,2-a]pyridine-7-carboxamide]		≤ 100
Cc1cc(C(=O)NC2CCOCC2)cc2nc(C(C)C)c(N(C)C3CCCCC3)n12 [Compound 34, 3-[Cyclohexyl(methyl)amino]-2-isopropyl-5-methyl-N-(tetrahydro-2H-pyran-4-yl)imidazo[1,2-a]pyridine-7-carboxamide]		≤ 100
O=C(NC1CCOCC1)c1cc(Br)n2c(CC3CCC(F)(F)CC3)c(C(F)(F)F)nc2c1 [Compound 39]	≤ 100	
O=Cc1cc(C(=O)NC2CCOCC2)cc2nc(C(F)(F)F)c(CC3CCC(F)(F)CC3)n12 [Compound 45, 3-[(4,4-Difluorocyclohexyl)methyl]-5-formyl-N-(tetrahydro-2H-pyran-4-yl)-2-(trifluoromethyl)imidazo[1,2-a]pyridine-7-carboxamide]	≤ 100	
O=C(NC1CCOCC1)c1cc(CF)n2c(CC3CCC(F)(F)CC3)c(C(F)(F)F)nc2c1 [Compound 47, 3-[(4,4-Difluorocyclohexyl)methyl]-5-(fluoromethyl)-N-(tetrahydro-2H-pyran-4-yl)-2-(trifluoromethyl)imidazo[1,2-a]pyridine-7-carboxamide]	≤ 100	
O=C(NC1CCOCC1)c1cc(C(F)F)n2c(CC3CCC(F)(F)CC3)c(C(F)(F)F)nc2c1 [Compound 48, 3-[(4,4-Difluorocyclohexyl)methyl]-5-(difluoromethyl)-N-(tetrahydro-2H-pyran-4-yl)-2-(trifluoromethyl)imidazo[1,2-a]pyridine-7-carboxamide]	≤ 100	
O=C(NC1CCOCC1)c1cc(O)n2c(CC3CCC(F)(F)CC3)c(C(F)(F)F)nc2c1 [Compound 49, 3-[(4,4-Difluorocyclohexyl)methyl]-5-hydroxy-N-(tetrahydro-2H-pyran-4-yl)-2-(trifluoromethyl)imidazo[1,2-a]pyridine-7-carboxamide]	≤ 100	
C#Cc1cc(C(=O)NC2CCOCC2)cc2nc(C(F)(F)F)c(CC3CCC(F)(F)CC3)n12 [Compound 50, 3-[(4,4-Difluorocyclohexyl)methyl]-5-ethynyl-N-(tetrahydro-2H-pyran-4-yl)-2-(trifluoromethyl)imidazo[1,2-a]pyridine-7-carboxamide]		≤ 100
CC(C)(O)CNC(=O)c1cc(C#N)n2c(CC3CCC(F)(F)CC3)c(C(F)(F)F)nc2c1 [Compound 51, 5-Cyano-3-[(4,4-difluorocyclohexyl)methyl]-N-(2-hydroxy-2-methylpropyl)-2-(trifluoromethyl)imidazo[1,2-a]pyridine-7-carboxamide]	≤ 100	
N#Cc1cc(C(=O)Nc2ccccc2N)cc2nc(C(F)(F)F)c(CC3CCC(F)(F)CC3)n12 [Compound 52, N-(2-Aminophenyl)-5-cyano-3-[(4,4-difluorocyclohexyl)methyl]-2-(trifluoromethyl)imidazo[1,2-a]pyridine-7-carboxamide]	≤ 100	
